One assay has as its system NCI-H929. As to the kind of experiment: Cytostatic activity on human multiple myeloma cell line NCI-H929 (WST-1). The format is cell-based. The note with it: for inhibition at 10 µM: 10 μmol/L, read-out: cytostatic rate (%) H929 (10 μmol/L). The procedure: (§1) The cytostatic rates of a test compound on human multiple myeloma cell lines NCI-H929 and KMS-11, were determined in the following manner.
(§2) For culturing NCI-H929, Roswell Park Memorial Institute's Medium (RPMI) 1640 (Gibco, Catalog No. 11875-093) containing 15% fetal bovine serum (Gibco, Catalog No. 10099-141), 1 mmol/L sodium pyruvate (Gibco, Catalog No. 11360-070), 10 mmol/L HEPES (Gibco, Catalog No. 15630-80), 4.5 g/L glucose (Sigma, Catalog No. G8769), 0.05 mmol/L 2-mercaptethanol (Nacalai Tesque, Catalog No. 21418-42) and penicillin/streptomycin (1:1) (Gibco, Catalog No. 15140-122) was used. For culturing KMS-11 cell, RPMI 1640 medium containing 10% fetal bovine serum and penicillin/streptomycin (1:1) was used. Each 80 μL of the NCI-H929 cell having a concentration of 1×10^5 cells/mL (or the KMS-11 cell having a concentration of 7.5×10^4 cells/mL) was inoculated to wells of a TC MICROWELL 96U plate (Nalge Nunc International, Catalog No. 163320) and was cultured in a 5% carbon dioxide gas incubator at 37° C. for 24 hours. Each 20 μL of a solution of the test compound in dimethyl sulfoxide (DMSO) which was prepared to make the final concentration to 1 μmol/L or 10 μmol/L, was added to each well. Each 20 μL of DMSO was added to the control well and the blank well to a final concentration of 0.1%. After adding the test compound, the cells were incubated in a 5% carbon dioxide gas incubator at 37° C. for 72 hours except for the blank well. After adding 20 μL of WST-1 reagent {4-[3-(4-iodophenyl)-2-(4-nitrophenyl)-2H-5-tetrazolio]-1,3-benzene disulfonate sodium salt} (Roche Diagnostics K.K., Catalog No. 1644807), which was diluted to 50% by RPMI medium to each well, the cells were further incubated at 37° C. for 2 hours. Then, the absorbances at 450 nm (reference wavelength: 690 nm) were measured with a microplate spectrophotometer SPECTRA max 340PC (Molecular Devices Corporation). The relative growth (%) of a well to which the test compound had been added and cultured for 72 hours was determined while setting the absorbance of a well to which not the test compound but DMSO alone had been added and cultured for 72 hours (control) as 100% and that of a well where the drugs are added (blank) as 0%. The cytostatic rate (%) of the test compound was determined by subtracting the calculated relative growth from 100.

The target of a further assay is T1, IGF-1R (Homo sapiens, UniProt P08069).
T1 construct: purchased Upstate Co. 14-465
T1 sequence (P08069 959-1367 limits assumed): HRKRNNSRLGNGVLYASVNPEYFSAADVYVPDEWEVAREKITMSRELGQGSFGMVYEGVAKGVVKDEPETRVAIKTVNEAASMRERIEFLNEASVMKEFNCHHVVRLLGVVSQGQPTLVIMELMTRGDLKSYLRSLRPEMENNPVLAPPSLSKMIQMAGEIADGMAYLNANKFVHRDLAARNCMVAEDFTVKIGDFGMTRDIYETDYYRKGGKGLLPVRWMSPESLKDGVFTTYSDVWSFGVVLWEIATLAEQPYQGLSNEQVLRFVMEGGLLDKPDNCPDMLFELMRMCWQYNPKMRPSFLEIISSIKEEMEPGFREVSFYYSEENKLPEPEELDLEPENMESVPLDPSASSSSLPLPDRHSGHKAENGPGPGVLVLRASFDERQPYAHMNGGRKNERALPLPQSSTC
As to the kind of experiment: IGF-1R inhibitory activity (kinase reaction, time-resolved fluoroimmunoassay). The format is biochemical. The note with it: test compound 10 μmol/L. The essentials:
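Compounds were tested at a single 10 μmol/L concentration. Each was incubated with recombinant IGF-1R (200 μg/L), 10 mmol/L ATP, MgCl2/MnCl2 and Na3VO4 (pH 7.5) on immobilized poly(Glu-Tyr) peptide for 30 min at 24° C. Eu-anti-phosphotyrosine time-resolved fluorescence (340/615 nm) gave relative activity against no-compound and no-enzyme wells, reported as % inhibition.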

A further assay relates to KMS-11. The assay is described as follows: Cytostatic activity on human multiple myeloma cell line KMS-11 (WST-1). The format is cell-based. The conditions noted are these: Homo sapiens, KMS-11, 72 h, 10 μmol/L, 72 hours; read-out: cytostatic rate (%) KMS-11 (10 μmol/L). The procedure: as §1, §2
Background: Tetrazolium dyes change colour on reduction, which living cells bring about.

The mark [1] stands for this setting: Homo sapiens, NCI-H929, 72 h, 72 hours.
Setting [2] is: IGF-1R active recombinant enzyme.

Where a name gives a salt, the structure may show the parent alone.

On to `Cc1ccsc1C(=O)Nc1cc(C(=O)O)ccc1/C=C/c1n[nH]c2ccccc12` [Compound 98, (E)-4-[2-(1H-indazol-3-yl)vinyl]-3-[(3-methylthiophen-2-ylcarbonyl)amino]benzoic acid], for which the results for the inhibition at 10 µM in the assay on NCI-H929 (setting [1]) and at IGF-1R were 66.3% and 98.4%, respectively.
For `Cc1ccsc1C(=O)Nc1cc(C(=O)N2CCNCC2)ccc1/C=C/c1n[nH]c2ccccc12` [Compound 99, (E)-N-{2-[2-(1H-indazol-3-yl)vinyl]-5-(piperazin-1-ylcarbonyl)phenyl}-3-methylthiophene-2-carboxamide], the inhibition at 10 µM with KMS-11 amounted to 118%; at IGF-1R, 97.4%.
Taken in the same sequence, the figures for `COC(=O)c1ccc(/C=C/c2n[nH]c3ccccc23)c(NC(=O)c2sccc2C)c1` [Compound 97, (E)-4-[2-(1H-indazol-3-yl)vinyl]-3-[(3-methylthiophen-2-ylcarbonyl)amino]benzoic acid methyl ester] were 100% and 97.1%.
With `CC(=O)N1CCN(c2ccccc2/C=C/c2n[nH]c3ccccc23)CC1` [Compound 133, (E)-4-acetyl-1-{2-[2-(1H-indazol-3-yl)vinyl]phenyl}piperazine], the figures for the inhibition at 10 µM with NCI-H929 (setting [1]) and at IGF-1R (setting [2]) were 62.9% and 70.4%, respectively.
Turning to `CCCNC(=O)c1ccc(/C=C/c2n[nH]c3ccccc23)c(NC(=O)c2sccc2C)c1` [Compound 112, (E)-N-{2-[2-(1H-indazol-3-yl)vinyl]-5-(N-propylcarbamoyl)-phenyl}-3-methylthiophene-2-carboxamide], the inhibition at 10 µM in the assay with KMS-11 was 126%; on IGF-1R, 98.5%.
On to `Cc1ccsc1C(=O)Nc1ccc(OCCN2CCOCC2)cc1/C=C/c1n[nH]c2ccccc12` [Compound 103, (E)-N-{2-[2-(1H-indazol-3-yl)vinyl]-4-(2-morpholinoethoxy)phenyl}-3-methylthiophene-2-carboxamide], for which the inhibition at 10 µM in the assay with NCI-H929 (setting [1]) was determined as 130%; on IGF-1R it was 97%.
Take `CC(C)C(=O)Nc1ccc(C(=O)Nc2ccccc2/C=C/c2n[nH]c3ccccc23)s1` [Compound 62, (E)-N-{2-[2-(1H-indazol-3-yl)vinyl]phenyl}-5-isobutyrylaminothiophene-2-carboxamide]: the inhibition at 10 µM in the assay with NCI-H929 (setting [1]) was determined as 120%; on IGF-1R (setting [2]), 95.7%.
For `COC1CCN(C(=O)c2ccc(/C=C/c3n[nH]c4ccccc34)c(N3Cc4c(N)cccc4C3=O)c2)CC1` [Compound 310, (E)-4-amino-2-{2-[2-(1H-indazol-3-yl)vinyl]-5-(4-methoxypiperidin-1-ylcarbonyl)phenyl}-2,3-dihydroisoindole-1-one], the inhibition at 1 µM in the assay with NCI-H929 (Homo sapiens, NCI-H929, 72 h, NCI-H929 cells, test compound 1 μmol/L, WST-1, read-out: cytostatic rate (%) H929 (1 μmol/L)) was 105%. The inhibition at 10 µM on IGF-1R (setting [2]) was determined as 97.9%.
Regarding `Cc1ccsc1C(=O)Nc1cc(C(=O)N2CC[C@@H](N)C2)ccc1/C=C/c1n[nH]c2ccccc12` [Compound 102, (E)-(R)—N-{5-(3-aminopyrrolidine-1-ylcarbonyl)-2-[2-(1H-indazol-3-yl)vinyl]phenyl}-3-methylthiophene-2-carboxamide], the inhibition at 10 µM in the assay on NCI-H929 (setting [1]) was 125%; against IGF-1R, 97.8%.
On to `CN(C(=O)c1ccccc1)c1ccccc1/C=C/c1n[nH]c2ccccc12` [Compound 38, (E)-N-{2-[2-(1H-indazol-3-yl)vinyl]phenyl}-N-methylbenzamide], for which the inhibition at 10 µM was 65% in the assay with NCI-H929 (setting [1]) and 93% at IGF-1R (setting [2]).
Regarding `Cn1cccc1C(=O)Nc1cc2c(cc1/C=C/c1n[nH]c3ccccc13)OCO2` [Compound 131, (E)-N-{6-[2-(1H-indazol-3-yl)vinyl]benzo[1,3]dioxol-5-yl}-1-methylpyrrole-2-carboxamide], the inhibition at 10 µM in the assay with NCI-H929 (setting [1]) came to 122%; on IGF-1R, 94.1%.
In the same order, the values of `Cn1cccc1C(=O)Nc1ccc(OCCN2CCOCC2)cc1/C=C/c1n[nH]c2ccccc12` [Compound 104, (E)-N-{2-[2-(1H-indazol-3-yl)vinyl]-4-(2-morpholinoethoxy)phenyl}-1-methylpyrrole-2-carboxamide] are 130% and 98.3%.
In the same order, the values of `Cc1ccsc1C(=O)Nc1cc2c(cc1/C=C/c1n[nH]c3ccccc13)OCO2` [Compound 130, (E)-N-{6-[2-(1H-indazol-3-yl)vinyl]benzo[1,3]dioxol-5-yl}-3-methylthiophene-2-carboxamide] are 126% and 98.3%.
In the case of `O=C(Nc1cc(C(=O)N2CCN(CCO)CC2)ccc1/C=C/c1n[nH]c2ccccc12)c1ccccc1` [Compound 290], the “cytostatic rate (%) H929 (1 μmol/L)” value with NCI-H929 (1 μmol/L, 72 hours) amounted to 93.8%. Besides, the “inhibitory activity (%) at 10 μmol/L” value at IGF-1R (setting [2]) turned out to be 95.7%.
Consider `OCc1ccn(-c2ccccc2/C=C/c2n[nH]c3ccccc23)c1` [Compound 168, (E)-1-{2-[2-(1H-indazol-3-yl)vinyl]phenyl}-1H-pyrrole-3-methanol], for which the inhibition at 10 µM came to 106% with NCI-H929 (setting [1]) and 99% on IGF-1R (setting [2]).
As for `Cc1ccc2c(c1)C(=O)N(c1ccccc1/C=C/c1n[nH]c3ccccc13)C2=O` [Compound 197, (E)-2-{2-[2-(1H-indazol-3-yl)vinyl]phenyl}-5-methylisoindole-1,3-dione], the inhibition at 10 µM on IGF-1R (setting [2]) came to 101%.
On the same count and under the same terms, as for `O=C1C2=C(CCC2)C(=O)N1c1ccccc1/C=C/c1n[nH]c2ccccc12` [Compound 210, (E)-2-{2-[2-(1H-indazol-3-yl)vinyl]phenyl}-5,6-dihydro-4H-cyclopenta[c]pyrrole-1,3-dione], the figure is 96.5%.
As to `COC1CCN(C(=O)c2ccc(/C=C/c3n[nH]c4ccccc34)c(NC(=O)c3sccc3C)c2)CC1.Cl` [Compound 127, (E)-N-{2-[2-(1H-indazol-3-yl)vinyl]-5-(4-methoxypiperidin-1-ylcarbonyl)phenyl}-3-methylthiophene-2-carboxamide hydrochloride], the “inhibitory activity (%) at 10 μmol/L” value at IGF-1R is on record as 101.9%.
As for `COc1cc(N)c(/C=C/c2n[nH]c3ccccc23)cc1OC` [Compound 92, (E)-2-[2-(1H-indazol-3-yl)vinyl]-4,5-dimethoxyphenylamine], the inhibition at 10 µM in the assay on NCI-H929 (setting [1]) was 70.1%; against IGF-1R, 66.5%.
Take `O=C1c2ccncc2C(=O)N1c1ccccc1/C=C/c1n[nH]c2ccccc12` [Compound 198, (E)-2-{2-[2-(1H-indazol-3-yl)vinyl]phenyl}pyrrolo[3,4-c]pyridine-1,3-dione hydrochloride]: the inhibition at 10 µM on IGF-1R (setting [2]) stood at 87.2%.
On to `Cc1ccsc1C(=O)Nc1cc(C(=O)N(C)C)ccc1/C=C/c1n[nH]c2ccccc12.Cl` [Compound 125, (E)-N-{5-(N,N-dimethylcarbamoyl)-2-[2-(1H-indazol-3-yl)vinyl]phenyl}-3-methylthiophene-2-carboxamide hydrochloride], for which, at IGF-1R, the “inhibitory activity (%) at 10 μmol/L” value was 100.9%.
Turning to `O=C1c2ccc(Cl)cc2C(=O)N1c1ccccc1/C=C/c1n[nH]c2ccccc12` [Compound 196, (E)-5-chloro-2-{2-[2-(1H-indazol-3-yl)vinyl]phenyl}isoindole-1,3-dione], the inhibition at 10 µM on IGF-1R (setting [2]) came to 99.8%.
`O=C(Nc1ccc(C(=O)Nc2ccccc2/C=C/c2n[nH]c3ccccc23)s1)c1cccs1` [Compound 61, (E)-N-{2-[2-(1H-indazol-3-yl)vinyl]phenyl}-5-[(thiophen-2-ylcarbonyl)amino]thiophene-2-carboxamide]: the inhibition at 10 µM was 124% in the assay on NCI-H929 (setting [1]) and 94.5% on IGF-1R (setting [2]).
For the molecule `O=C(Nc1ccccc1/C=C/c1n[nH]c2ccccc12)c1ccc(CO)cc1` [Compound 79, (E)-4-hydroxymethyl-N-{2-[2-(1H-indazol-3-yl)vinyl]phenyl}benzamide], the inhibition at 10 µM at IGF-1R (setting [2]) stood at 97.2%.
Consider `C(=Cc1n[nH]c2ccccc12)c1ccccc1Nc1cnccn1` [Compound 155, N-{2-[2-(1H-indazol-3-yl)vinyl]phenyl}-2-pyrazylamine], for which the “inhibitory activity (%) at 10 μmol/L” value on IGF-1R (setting [2]) was determined as 97.9%.

The record behind these values is patent US7605272B2, “IGF-1R inhibitor” (Kyowa Hakko Kirin Co., Ltd., priority 2005, dated 2009).
